In PMC6073854, “Role of Arginine 117 in Substrate Recognition by Human Cytochrome P450 2J2” (International Journal of Molecular Sciences, 2018):
Numbering of substitutions follows the chain as printed. Values joined by “and” are separate entries in the source; they are usually repeats but may differ in a detail not shown here. Equal values may be shown once.

Legend:
wild-type CYP2J2 = molecular target: T1, wild-type CYP2J2 (Homo sapiens, UniProt P51589); conditions: cited from earlier work
T1 sequence (P51589 1-502): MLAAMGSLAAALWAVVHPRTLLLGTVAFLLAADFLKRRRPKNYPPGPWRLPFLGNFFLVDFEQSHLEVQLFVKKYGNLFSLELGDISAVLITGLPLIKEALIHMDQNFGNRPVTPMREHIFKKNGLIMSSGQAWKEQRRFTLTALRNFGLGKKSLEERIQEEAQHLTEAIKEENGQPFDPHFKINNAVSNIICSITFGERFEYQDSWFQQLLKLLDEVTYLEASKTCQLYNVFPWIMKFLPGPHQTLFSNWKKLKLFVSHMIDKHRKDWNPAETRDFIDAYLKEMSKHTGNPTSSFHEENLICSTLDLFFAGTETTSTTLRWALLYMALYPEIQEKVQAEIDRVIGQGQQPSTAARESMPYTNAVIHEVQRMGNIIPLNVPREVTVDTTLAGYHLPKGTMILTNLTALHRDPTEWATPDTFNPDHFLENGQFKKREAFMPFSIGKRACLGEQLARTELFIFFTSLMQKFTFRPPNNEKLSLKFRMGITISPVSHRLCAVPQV

CYP2J2-R117E = molecular target: T2, CYP2J2-R117E (Homo sapiens, UniProt P51589, R117E); experiment: biochemical
T2 sequence (P51589 1-502 R117E): T1 sequence (P51589 1-502) with R117E
Procedure: (§1) At t0 and regularly thereafter, aliquots (200 µL) were taken and the reaction was terminated by treatment with 100 µL of a cold CH3CN/CH3COOH (10:1) mixture. Proteins were precipitated by centrifugation for 10 min at 10,000 rpm, and the supernatant was analyzed by reverse-phase HPLC. […] The kinetic parameters correspond to initial rates that were measured under linear conditions for proteins and time.

CYP2J2-R117K = molecular target: T3, CYP2J2-R117K (Homo sapiens, UniProt P51589, R117K); experiment: biochemical
T3 sequence (P51589 1-502 R117K): T1 sequence (P51589 1-502) with R117K
Procedure: as §1

wild type CYP2J2 = tested on: wild type CYP2J2; parameters: method as in PMID 17705402; conditions: docked model, WT; values previously reported ref 50; cited from earlier work

SMILES | IC50 (wild-type CYP2J2) [nM] | IC50 (CYP2J2-R117E) | IC50 (CYP2J2-R117K) [nM] | Fe-C distance, α carbon of R group (wild type CYP2J2) [Å] | Fe-C distance, β carbon of R group (wild type CYP2J2) [Å] | Fe-C distance, γ carbon of R group (wild type CYP2J2) [Å]
CC(C)(C)c1ccc(CCCCN2CCC(C(O)(c3ccccc3)c3ccccc3)CC2)cc1 [Compound 3] | 3600 ± 700 | 2100 ± 400 nM | 8600 ± 200 | – | – | –
CCCc1ccc(CCCCN2CCC(C(O)(c3ccccc3)c3ccccc3)CC2)cc1 [Compound 4] | 4500 ± 900 | 2900 ± 200 nM | 13200 ± 100 | – | – | –
CCCc1ccc(C(=O)CCCN2CCC(C(O)(c3ccccc3)c3ccccc3)CC2)cc1 [Compound 2] | 400 ± 100 | 1000 nM and 500 nM | 1100 ± 200 | 4.9 | 3.8 | 4.6
CC(C)(C)c1ccc(C(=O)CCCN2CCC(C(O)(c3ccccc3)c3ccccc3)CC2)cc1 [Terfenadone 1, Terfenadone] | 700 ± 100 | 500 nM and 1000 nM | ~1000 | – | – | –
